# According to patent US12024584B2, “Methods and compositions for polyurethane dispersions using caprolactam-derived solvents” (AdvanSix Resins & Chemicals LLC, priority 2017, dated 2024):
# Where two headings read alike, the source gives them in different places.
# Assays:
# [1] = Solubility of DMPA in solvents
# Description: Solubility was tested between the various solvents to determine their applicability in the PUD manufacturing processes. Solubility is the amount of a substance (coalescing agent) that dissolves in a unit volume of a liquid substance (solvent) to form a saturated solution under specified conditions of temperature and pressure. For the examples, amounts of […] (DMPA) were dissolved in each solvent.
# [2] = MFFT of pigmented and complete PUDs; assay type: physicochemical; conditions: pigmented and complete PUD, 3 wt. % coalescing agent
# Excerpt: (§1) Tests were first performed to determine the coalescing agent level for pigmented and complete PUD formulations in order to achieve the optimum film formation. Complete paints were mixed with 0.7 wt. %, 1.5 wt. %, 3.0 wt. % and 5.0 wt. % of coalescing agents and applied on tin plated steel at a wet film thickness of around 250 μm, where the weight percentage was based on the pure polyurethane dispersion resins. […] Based on the observations, 3 wt. % dosage of coalescing agent was selected. Complete PUD formulations with pigments, fillers and other additives were prepared as per Table 5, and used to test and determine the coalescing properties of the caprolactam-derived solvents and other known coalescing agents. The standard test for determining this temperature involves using a MFFT-BAR, as specified by standards ASTM D 2354 and ISO 2115. In general, the MFFT of a paint or coating is reduced temporarily by the use of coalescing agents.
# [3] = Color of pigmented and complete PUDs (ISO 7724-2); assay type: physicochemical
# Excerpt: as §1, with “agents.” for “agents. The standard test for determining this temperature involves using a MFFT-BAR, as specified by standards ASTM D 2354 and ISO 2115. In general, the MFFT of a paint or coating is reduced temporarily by the use of coalescing agents.”
# (§2) Gloss measurements serve as an indicator of the paints surface quality. Gloss and color measurements were determined according to the ISO 2813 standard and the ISO 7724-2 standard (SCI-D65/10°), respectively.
# [4] = Gloss of pigmented and complete PUDs (ISO 2813); assay type: physicochemical
# Excerpt: as §1, with “agents.” for “agents. The standard test for determining this temperature involves using a MFFT-BAR, as specified by standards ASTM D 2354 and ISO 2115. In general, the MFFT of a paint or coating is reduced temporarily by the use of coalescing agents.”
# as §2
# Open time (ASTM D7488) = assay type: physicochemical; conditions: ASTM D7488, 23±2° C., 50±5% RH, wet film 200 μm
# Excerpt: as §1, with “agents.” for “agents. The standard test for determining this temperature involves using a MFFT-BAR, as specified by standards ASTM D 2354 and ISO 2115. In general, the MFFT of a paint or coating is reduced temporarily by the use of coalescing agents.”
# Open times were determined according to the ASTM D7488 “Test Method for Open Time of Latex” standard and the tests were performed under controlled temperature and humidity (23±2° C. and 50±5% RH). In general, the paints were applied at a wet film thickness of 200 μm on contrasting sealed charts by means of a doctor blade applicator, and “X” marks are made immediately with the wide curved end of a wooden paint brush. After a determined time internal, the brush was dipped into the paint to be tested and brushing of the X-marks was started in perpendicular direction to the initial drawdown using 10 strokes back and forth to work the paint under test into the drawdown area. This procedure is repeated after several time intervals. After their complete drying (1 week), the painted panels are observed by two different observers and the time for which the “X” marks to become visible is considered as the open time.
# [5] = Scrub resistance of pigmented and complete PUDs (ISO 11998); assay type: physicochemical; conditions: for Wt. Loss: 200 wet-scrub cycles; for Loss of thickness after 200 wet-scrub cycles: calculated from weight loss
# Excerpt: as §1, with “agents.” for “agents. The standard test for determining this temperature involves using a MFFT-BAR, as specified by standards ASTM D 2354 and ISO 2115. In general, the MFFT of a paint or coating is reduced temporarily by the use of coalescing agents.”
# Scrub resistance was tested according the ISO 11998 “Paints and Varnishes—Determination of Wet-Scrub Resistance and Cleanability of Coatings” standard. In this testing method, the paint was applied on a test panel (Leneta sheet) using a film applicator at the specific gap clearance. After drying and conditioning for four weeks at room temperature the coated panel was weighed and subject to 200 wet-scrub cycles in a scrub resistance machine. The panel was then washed, dried and weighed to determine the loss from which the mean loss in film thickness was calculated. […] For instance, N-methyl caprolactam (NM CPL), N-ethyl caprolactam (NE CPL), and blends thereof in the ratios of 1:2 and 1:1, all had less loss of thickness (2.035 μm, 1.797 μm, 1.39 μm, and 1.64 μm, respectively) as compared to NMP (2.090 μm) and NBP (2.213 μm).
# [6] = Persoz hardness of pigmented and complete PUDs; assay type: physicochemical; conditions: pigmented
# Excerpt: as §1, with “agents.” for “agents. The standard test for determining this temperature involves using a MFFT-BAR, as specified by standards ASTM D 2354 and ISO 2115. In general, the MFFT of a paint or coating is reduced temporarily by the use of coalescing agents.”
# Persoz hardness measurements were performed on pigmented paints that were applied on tin plated steel using a doctor blade applicator at a dry film thickness (DFT) around 50 μm according to the ISO 1522 standard. […] For instance, the 28 day hardness for N-ethyl caprolactam (NE CPL) was approximately 104.6±0.5, while the 28 day hardness for NMP was approximately 108.8±2.4, and the 28 day hardness for ester alcohol and N-methyl caprolactam (NM CPL) were approximately 124.8±1 and 126.0±1, respectively, while the 28 day hardness for NBP was approximately 135.8±5.
# [7] = Drying time (ASTM D1640 / ASTM D5895); assay type: physicochemical; conditions: 200 μm humid film; blends by ASTM D1640, single solvents by ASTM D5895
# Excerpt: as §1, with “agents.” for “agents. The standard test for determining this temperature involves using a MFFT-BAR, as specified by standards ASTM D 2354 and ISO 2115. In general, the MFFT of a paint or coating is reduced temporarily by the use of coalescing agents.”
# The drying times for the pigmented PUD formulations were determined according to the ASTM D1640 “Standard Test Methods for Drying, Curing, or Film Formation of Organic Coatings” standard or the ASTM D5895 “Standard Test Methods for Evaluating Drying or Curing During Film Formation of Organic Coatings Using Mechanical Recorders” standard. Four stages of drying can be identified depending on the trace left by the needle on the paint surface: Stage 1—Set-to-Touch time, Stage 2—Tack-Free time, Stage 3—Dry-Hard time, and Stage IV—Dry trough time. However, Stage IV is often hard to detect.
# In general, the paints were applied at a humid film thickness of 200 μm by means of a bar coater on a Leneta sheet and the needle rate was set at 60 cm/hr.
# For the present examples, the drying times for the 2:1 A:B, 1:1 A:B, and 1:2 A:B solvents were determined using the ASTM D1640 standard, and the drying times for NM CPL, NE CPL, NMP, NBP, ester amide, and ester alcohol were determined using the ASTM D5895 standard.
# [8] = Freeze and thaw stability (ASTM D2243-95); assay type: physicochemical; conditions: for freeze-thaw stability: viscosity change (thickening of the paint): cycles of 16 hours at −20° C. and 8 hours at room temperature
# Description: Water-based emulsions and dispersions are susceptible to irreversible coagulation by freezing. Freeze and thaw stability was tested according the ASTM D2243-95 standard.
# For these examples, pigmented PUD paints were subject to freeze-thaw cycles of 16 hours at −20° C. and 8 hours at room temperature and subsequently subject to visible observations. The paints were then applied on a tin plated steel plate at a thickness of approximately 200 μm for observing film properties.
# In addition, the freeze-thaw stability was best for caprolactam-derived coalescing agents (NM CPL) and the blends even after subject to five cycles (see FIG. 9). In particular, the paints were visually observed after each cycle to see if there was any viscosity change, i.e., thickening of the paint. Then, the dry films of the coatings were observed visually.
# [9] = Viscosity and storage stability of pigmented PUD formulations; assay type: physicochemical; conditions: 1 month at 50° C., FIG. 5
# Excerpt: as §1, with “agents.” for “agents. The standard test for determining this temperature involves using a MFFT-BAR, as specified by standards ASTM D 2354 and ISO 2115. In general, the MFFT of a paint or coating is reduced temporarily by the use of coalescing agents.”
# Dispersions and emulsions tend to aggregate polyurethane particles during storage. One way to determine the stability of a polyurethane dispersion is to measure viscosity of the polyurethane dispersion over time. Viscosity is a measure of a solvent's resistance to gradual deformation by shear stress or tensile stress. […] The storage stability of the dispersions was evaluated based on variations between viscosity measurements performed on paints shortly after their preparation and after their storage for either one month at room temperature or one month at 50° C.
# [10] = Minimum film forming temperature, non-pigmented resin + coalescing agent; assay type: physicochemical; conditions: resin with 5 wt. % coalescing agent, film thickness 350 μm
Molecule,Solubility [1],MFFT [2] [°C],Color (Black background) L* [3],Color (Black background) a* [3],Color (Black background) b* [3],Color (White background) L* [3],Color (White background) a* [3],Color (White background) b* [3],Gloss 20° [4],Gloss 60° [4],Gloss 85° [4],Open Time (Open time (ASTM D7488)) [min],Wt. Loss [5] [g/m^2],Loss of thickness after 200 wet-scrub cycles [5],"Persoz Hardness ([6]; 1 Day, in s)","Persoz Hardness ([6]; 7 Days, in s)","Persoz Hardness ([6]; 14 Days, in s)","Persoz Hardness ([6]; 21 Days, in s)",Drying Time [7] [min],MFFT [10] [°C],other results
"CN1CCCC1=O [NMP, N-methyl pyrrolidone, reference compound]",54.0 g/100 g of Solvent,−1.4,94.55,−0.88,2.20,95.14,−0.52,3.02,1.3 ± 0,3.6 ± 0,30.7 ± 0.6,12,3.372,2.090 µm,94.2 ± 0.4,101.0 ± 2.4,100.6 ± 1.7,107.6 ± 1.3,19.8,–,–
"2, 2, 4-trimethyl-1,3-pentanediol monoisobutyrate [Ester alcohol, reference compound]",–,−0.4,94.93,−0.87,2.30,95.6,−0.51,3.16,1.3 ± 0,3.0 ± 0,19.6 ± 0.3,10,7.747,4.439 µm,98.2 ± 3,118.0 ± 1,120.0 ± 2,122.0 ± 2,13.6,–,"Persoz Hardness ([6]; 28 Days): approximately 124.8±1; Persoz Hardness ([6]; 28 Days, in s): 124.8 ± 1; freeze-thaw stability: viscosity change (thickening of the paint) [8]: thickening of the paint samples after two cycles"
"CCN1CCCCCC1=O [N—EtCPL, N-ethyl caprolactam]",20.0 g/100 g of Solvent,−2.4,94.45,−0.92,2.46,95.04,−0.61,3.24,1.3 ± 0,3.0 ± 0,24.5 ± 0.5,16,3.767,1.797 µm,101.0 ± 1.0,102.0 ± 0.7,101.4 ± 2.6,104.0 ± 2.8,17.4,−1.4±0.3,effect on color (yellowing) ([3]; pigmented PUD): no yellowing; storage stability (viscosity buildup) [9]: low viscosity buildup; freeze-thaw stability and film properties (comparison) ([8]; FIGS. 8 and 9): better freeze-thaw stability and film properties than NBP and ester alcohol
"CCCCN1CCCC1=O [NBP, N-butyl pyrrolidone, reference compound]",–,−0.7,94.00,−1.04,2.20,95.01,−0.56,3.32,1.3 ± 0,2.8 ± 0,19.9 ± 0.2,12,4.142,2.213 µm,64.4 ± 3,127.0 ± 2,133.2 ± 5,136.6 ± 6,11.8,−0.4±0.2,freeze-thaw stability: viscosity change (thickening of the paint) [8]: thickening of the paint samples after two cycles
"COC(=O)CCCCC(=O)N(C)C [Ester amide, Hexanoic acid, 6-(dimethylamino)-6-oxo, methyl ester]",–,−0.6,93.84,−1.05,2.03,94.98,−0.51,3.29,1.3 ± 0,3.3 ± 0,24.2 ± 0.2,12,7.920,4.040 µm,–,–,–,–,13.3,–,Solubility ([1]; DMPA dissolved in each solvent): 10.0 g/100 g of Solvent
"CCCCN1CCCCCC1=O [N—BuCPL, N-butyl caprolactam]",10.0 g/100 g of Solvent,–,–,–,–,–,–,–,–,–,–,–,–,–,–,–,–,–,–,−1.3±0.3,–
"N-butyl pyrrolidone [NBP, reference compound]",20.0 g/100 g of Solvent,–,–,–,–,–,–,–,–,–,–,–,–,–,–,–,–,–,–,–,–
